Measurements taken from patent US20070185176A1, “Heparanase inhibitors and uses thereof” (Insight Bioharmaceuticals Ltd., priority 2004, published 2007).
pIC50: −log10 of the molar value.

How the values were obtained:
[1] = tested on: HT1080 cells; assay: In vitro assay of invasion inhibition (BD BioCoat Angiogenesis System, matrigel); format: cell-based, human; details: for Invasion: HT1080 cells through matrigel, non-toxic concentration, 22 hours
Method: (c) In Vitro Assay of Invasion Inhibition by Heparanase Inhibitors
The ability of the compounds of the invention to inhibit cell invasion was determined quantitatively by the in vitro Endothelial Cell Migration assay using a BD BioCoat Angiogenesis System kit. The kit consists of a 24-multiwell insert plate (FluoroBlok, BD Falcon) containing a microporous (3.0 μm pore size) polyethylene terephthalate (PET) membrane that is capable of blocking fluorescence completely (>99% efficiency). This membrane is uniformly coated with matrigel (BD Matrigel Matrix). The uniform layer of matrigel matrix serves as a reconstituted authentic basement membrane in vitro, providing a true barrier to non-invasive cells, but allowing endothelial cells to attach to the membrane and freely migrate towards an angiogenic stimulus in the lower chamber of the insert plate. Post-labeling the cells with a fluorescent dye and measuring the fluorescence of invading cells in a fluorescent plate reader, provides quantitative measurement of cell invasion.
To cover the optimal seeding density for HT1080 cells, suspensions containing various cell concentrations were prepared: 1 ml of 3×10^5 cells/ml, 8 ml of 1.5×10^5 cells/ml and 1 ml of 0.75×10^5 cells/ml. The top chambers of each well in the inserts was filled with 0.25 ml cell-suspension, […] DMEM containing 5% fetal calf serum and an inhibitor solution. The plates were incubated for 22 hours at 37° C. and 8% CO2 atmosphere. At the end of incubation, the medium was aspirated from the upper chambers, and the insert was transferred into a second 24-well plate containing 0.5 ml/well of the fluorescent dye Calcein AM solution (4 μg/ml per plate, prepared from 50 μg Calcein AM dissolved in 20 μl DMSO and 12.5 ml of warm HBSS medium), and incubated for 90 minutes at 37° C., 8% CO2 atmosphere. Fluorescence of invaded cells was read in a fluorescence plate reader with bottom read capabilities at excitation/emission wavelength of 485/530 nm, without further manipulation. Only those labeled cells that have invaded the matrigel and passed through the pores of the PET membrane, were detected.

[2] = molecular target: T1, human recombinant heparanase (h-hpa) (Homo sapiens, UniProt Q9Y251); assay: In vitro dimethylmethylene blue (DMB) assay for heparanase activity
T1 sequence (Q9Y251 158-543 limits assumed): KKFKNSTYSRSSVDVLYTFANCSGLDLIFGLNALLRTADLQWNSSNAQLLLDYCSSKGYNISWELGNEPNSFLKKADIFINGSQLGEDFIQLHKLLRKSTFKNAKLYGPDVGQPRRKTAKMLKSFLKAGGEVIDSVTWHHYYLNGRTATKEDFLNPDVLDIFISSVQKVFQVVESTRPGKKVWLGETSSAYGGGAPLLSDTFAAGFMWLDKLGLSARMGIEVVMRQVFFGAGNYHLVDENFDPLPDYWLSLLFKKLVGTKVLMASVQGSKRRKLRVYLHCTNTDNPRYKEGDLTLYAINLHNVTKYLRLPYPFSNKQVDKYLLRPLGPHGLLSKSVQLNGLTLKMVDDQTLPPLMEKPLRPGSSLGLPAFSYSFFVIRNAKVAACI
T1 sequence (Q9Y251 36-109 limits assumed): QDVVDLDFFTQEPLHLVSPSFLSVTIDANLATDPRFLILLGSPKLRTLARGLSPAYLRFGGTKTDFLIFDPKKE
Method: (a) In Vitro Dimethylmethylene Blue (DMB) Assay for Heparanase Activity
Heparin Sepharose CL-6B beads were added up to the top of the wells of a multiscreen column loader (Millipore). A 96-well multiscreen plate containing 0.65 μm hydrophilic, low protein binding, Durapore membrane (Millipore) was placed, upside down, on top of the multiscreen column loader. The column loader and the multiscreen plate were held together, turned over, and the beads were uniformly transferred from the column loader to the multiscreen plate (Millipore, MADVM 650). Double-distilled water (DDW) was then added to the beads, which were allowed to swell for one minute, and then washed (three times) with DDW under vacuum. Heparin concentration was estimated to be 10 μM/well.
To each well, phosphate-buffered saline (PBS) containing 1% bovine serum albumin (BSA; 70 μl/well) and DMB (32 mg of DMB were dissolved in 5 ml ethanol, diluted to 1 liter with formate buffer containing 4 g sodium formate and 4 ml formic acid; 120 μl/well) were added. Color was developed after 5 minutes, and the absorbance of the samples was determined using a microplate reader (Spectra Max, Molecular Devices) at 530 nm with 570 nm as reference. The absorbance correlated to heparanase activity. As a control, heparanase was added to the heparin Sepharose swollen beads in the multiscreen plate and the heparanase reaction products were filtered immediately thereafter and the absorbance of these control samples was subtracted from all other samples.
The cell extracts were centrifuged and resuspended in 20 mM phosphate citrate buffer, pH 5.4 containing 50 mM NaCl. The cells were lysed by three cycles of freezing and thawing. The cell lysates were centrifuged (10000×g for 5 min), supernatants were collected and then assayed for heparanase activity using the DMB assay.
The partially purified human recombinant heparanase or the crude cell extracts expressing either human or mouse recombinant heparanase were added for a 3-hour incubation and the reaction continued as described above. Absorbance of the developing color was measured as described above.

| Structure (SMILES) | Invasion [1] | pIC50 [2] | inhibition of cell invasion [1] |
| --- | --- | --- | --- |
| CCCCCCCCCCCCCCCCCCN(C(=O)c1cc(Br)c2ccccc2c1O)c1cc(C(=O)O)cc(C(=O)O)c1 [Compound 43] | yes | 6.26 | – |
| CCCCCCCCCCCCCCCCCC1=NN(c2ccc(Oc3ccc(OCC)cc3)c(S(=O)(=O)O)c2)C(=O)C1 [Compound 24] | yes | 6.20 | – |
| CCCCCCCCCCCCCCCCCC1=NN(c2ccc(Oc3ccccc3)cc2S(=O)(=O)O)C(=O)C1/N=N/c1ccc(OC)cc1 (centres unmarked) [Compound 19] | yes | 6.49 | – |
| CCCCCCCCCCCCCCCCCC1=NN(c2ccc(Oc3ccccc3)c(S(=O)(=O)O)c2)C(=O)C1/N=N/c1c(C)n[nH]c1C (centres unmarked) [Compound 12] | yes | 6.62 | – |
| CCCCCCCCCCCCCCCCCC1=NN(c2ccc(Oc3ccccc3)c(S(=O)(=O)O)c2)C(=O)C1C(C)C (centres unmarked) [Compound 30] | yes | 6.80 | – |
| CCCCCCCCC(CCCCCCCC)C1=NN(c2cccc(S(=O)(=O)O)c2)C(=O)C1 [Compound 17] | yes | 5.57 | – |
| CCCCCCCCCCCCCCCCCCN(C(=O)c1ccc2ccccc2c1O)c1cc(C(=O)O)cc(C(=O)O)c1 [Compound 3] | yes | 6.42 | effective inhibitors of cell invasion |
| CCCCCCCCCCCCCCCCCC1=NN(c2ccc(Oc3ccccc3)c(S(=O)(=O)O)c2)C(=O)C1/N=N/c1ccc(O)c(OC)c1 (centres unmarked) [Compound 15] | yes | 6.60 | – |
| CCCCCCCCCCCCCCCCCC(=O)NC1=NN(c2ccc(Oc3ccccc3)c(S(=O)(=O)O)c2)C(=O)C1/N=N/c1cc(C(=O)O)c(O)cc1Cl (centres unmarked) [Compound 9] | yes | 6.80 | – |
| CCCCCCCCCCCCCCCCCC(=O)NC1=NN(c2ccc(Oc3ccccc3)c(S(=O)(=O)O)c2)C(=O)C1 [Compound 1] | yes | – | effective inhibitors of cell invasion |
| CCCCCCCCCCCCCCCCCCOc1ccc(C(=O)CC(=O)Nc2ccc(Sc3ccccc3C(=O)O)c(C(=O)O)c2)cc1 [Compound 44] | – | 6.68 | – |
| CCCCCCCCCCCCCCCCCC1=NN(c2ccc(-c3nc4cc(S(=O)(=O)O)ccc4s3)cc2)C(=O)/C1=N\c1ccc(N(CC)CC)cc1 [Compound 37] | – | 5.82 | – |
| CCCCCCCCCCCCCCCCCC1=Nn2c(nc3c(C(=O)O)cc(S(=O)(=O)O)cc32)C1 [Compound 4] | yes | 5.92 | – |
| CCCCCCCCCCCCCCCCCC1=NN(c2ccc(Oc3ccccc3)c(S(=O)(=O)O)c2)C(=O)C1/N=N/c1cc(OC)ccc1OC (centres unmarked) [Compound 8] | – | 6.68 | – |
| CCCCCCCCCCCCCCCCCC1=NN(c2ccc(Oc3ccccc3)c(S(=O)(=O)O)c2)C(=O)C1 [Compound 29] | yes | 6.49 | – |
| CCCCCCCCCCCCCCCCCCN(C)c1ccc(S(=O)(=O)O)cc1NC(=O)c1cc(/N=N/c2c(Cl)cccc2Cl)c2ccccc2c1O [Compound 53] | – | 6.40 | – |
| CCCCCCCCCCCCCC(=O)NC1=NN(c2ccc(Oc3ccccc3)c(S(=O)(=O)O)c2)C(=O)C1 [Compound 83] | – | 6.40 | – |
| CCCCCCCCCCCCCCCCCCOc1ccc(S(=O)(=O)O)cc1NC(=O)c1cc(/N=N/c2ccccc2C(=O)O)c2ccccc2c1O [Compound 49] | – | 5.57 | – |
| CCCCCCCCCCCCCCCC[n+]1ccc(C=NO)cc1 [Compound 80] | – | 4.77 | – |
| CCCCCCCCCCCCCCCCCC(=O)Nc1ccc(C(=O)NC2=NN(c3ccc(Oc4ccccc4)c(S(=O)(=O)O)c3)C(=O)C2/N=N/c2ccc(NS(=O)(=O)c3ccc(C)cc3)cc2)cc1 (centres unmarked) [Compound 27] | – | 6.57 | – |
| CCCCCCCCCCCCCCCCCC(=O)NC1=NN(c2ccc(Oc3ccccc3)c(S(=O)(=O)O)c2)C(=O)C1/N=N/c1ccc(O)c(C(=O)O)c1 (centres unmarked) [Compound 20] | – | 6.72 | – |
| CCCCCCCCCCCC1OC1CCCCC(=O)Nc1cc(C(=O)O)ccc1Oc1cc(C(N)=O)cc(C(=O)O)c1 (centres unmarked) [Compound 95] | – | 6.00 | – |
| CCCCCCCCCCCCCCC(=O)NC1=NN(c2ccc(Oc3ccccc3)c(S(=O)(=O)O)c2)C(=O)C1 [Compound 84] | – | 6.14 | – |
| CCCCCCCCCCCCCCCCCCOc1ccccc1C(=O)CC(=O)Nc1cc(NS(=O)(=O)c2cc(C(=O)O)cc(C(=O)O)c2)ccc1Cl [Compound 64] | – | 6.54 | – |
| CCCCCCCCCCCCCCCCCC(=O)NC1=NN(c2ccc(Oc3ccccc3)c(S(=O)(=O)O)c2)C(=O)C1/N=N/c1ccc(O)cc1Cl (centres unmarked) [Compound 69] | – | 6.74 | – |

| Structure (SMILES) | Invasion [1] | pIC50 [2] | inhibition of cell invasion [1] |
| --- | --- | --- | --- |
| CCCCCCCCCCCC1OC1CCCCC(=O)On1nnc2ccccc2c1=O (centres unmarked) [Compound 99] | – | 4.80 | – |
| CCCCCCCCCCCCCCCCCCN(C)c1ccc(S(=O)(=O)O)cc1NC(=O)c1cc(/N=N/c2cccc(NS(=O)(=O)c3ccccc3)c2)c2ccccc2c1O [Compound 33] | – | 6.68 | – |
| CCCCCCCCCCCCCCCCCC(=O)Nc1cc(C(=O)O)ccc1Oc1cc(C(=O)O)cc(C(=O)O)c1 [Compound 61] | – | 5.70 | – |
| CCCCCCCCCCCCCCCCOc1ccc(/C(=N\NS(=O)(=O)c2cc(C(=O)O)cc(C(=O)O)c2)N2CCCCC2)cc1OC [Compound 76] | – | 5.52 | – |
| CCCCCCCCCCCCCCCCS(=O)(=O)c1ccc(S(=O)(=O)O)cc1C(=O)O [Compound 89] | – | 5.26 | – |
| CCCCCCCCCCCCCCCCCCN(C)c1ccc(S(=O)(=O)O)cc1NC(=O)c1cc(/N=N/c2cc(-c3ccccc3)ccc2O)c2ccccc2c1O [Compound 34] | – | 6.51 | – |
| CCCCCCCCCCCCCCCCCC1=Nn2c(nc3cc(S(=O)(=O)O)ccc32)C1S(=O)(=O)O (centres unmarked) [Compound 35] | – | 5.87 | – |
| CCCCCCCCCCCCC/C=C/CC(O)(C(=O)Cc1cc(C(=O)O)ccc1Oc1cc(C(=O)O)cc(C(=O)O)c1)C(F)(F)F (centres unmarked) [Compound 98] | – | 5.82 | – |
| CCCCCCCCCCCCCCCCCC[n+]1c2cc(N(C)C)ccc2cc2ccc(N(C)C)cc21 [Compound 79] | – | 5.80 | – |
| CCCCCCCCCCCCCCCCCCN(C)c1ccc(S(=O)(=O)O)cc1NC(=O)c1cc(/N=N/c2cc(OC)c(O)cc2Cl)c2ccccc2c1O [Compound 55] | – | 6.37 | – |
| CCCCCCCCCCCCCCCCCCOc1ccc(S(=O)(=O)N/N=C2\N(CC)c3ccccc3C2(C)C)cc1C(=O)O [Compound 48] | – | 6.02 | – |
| CCCCCCCCCCCCCCCCCCN(C)c1ccc(S(=O)(=O)O)cc1NC(=O)c1cc(/N=N/c2cccc(NS(C)(=O)=O)c2)c2ccccc2c1O [Compound 47] | – | 6.60 | – |
| CCCCCCCCCCCCCCCCCCNC(=O)C1CC(=O)N(c2ccc(Oc3ccc(C(N)=O)cc3)c(S(=O)(=O)O)c2)C1 (centres unmarked) [Compound 106, 2-(4-amido-phenoxy)-5-(4-octadecyl-carbamoyl-2-oxo-pyrrolidin-1-yl)-benzene sulfonic acid] | – | 6.52 | – |
| CCCCCCCCCCCCCCCCCCn1c(-c2ccc3ccccc3c2O)nc2cc(S(=O)(=O)O)ccc21 [Compound 42] | – | 6.32 | – |
| CCCCCCCCCCCCCCCCCCn1c(C)nc2cc(S(=O)(=O)O)ccc21 [Compound 73] | – | 5.85 | – |
| CCCCCCCCCCCCCCCCCCNC(=O)C1CC(=O)N(c2ccc(Oc3ccc(S(=O)(=O)O)cc3)cc2)C1 (centres unmarked) [Compound 103] | – | 5.11 | – |
| CCCCCCCCCCCCCCCCCCOc1ccc(S(=O)(=O)Nc2cccc(S(=O)(=O)N/N=C3\N(C)c4ccccc4C3(C)C)c2)cc1C(=O)O [Compound 59] | – | 6.31 | – |
| CCCCCCCCCCCCCCCCCC1=NN(c2ccc(Oc3ccccc3)c(S(=O)(=O)O)c2)C(=O)C1/N=N/c1ccccc1N(C)C (centres unmarked) [Compound 5] | – | 6.66 | – |
| CCCCCCCCCCCCCCCCOc1ccc(S(=O)(=O)O)cc1C(=O)O [Compound 88] | – | 5.36 | – |
| CCCCCCCCCCCC1OC1CCCCC(=O)Nc1cc(C(=O)O)ccc1Oc1cc(C(=O)O)cc(C(=O)O)c1 (centres unmarked) [Compound 87] | – | 6.40 | – |
| CCCCCCCCCCCCCCCCCCOc1ccc(C(=O)O)cc1NC(=O)c1cc(Sc2nnnn2-c2ccccc2)c2ccccc2c1O [Compound 46] | – | 5.11 | – |
| CCCCCCCCCCCCCCCC(=O)OC[C@H](O)C1OC(=O)C(O)=C1O (some centres unmarked) [Compound 78] | – | 5.05 | – |
| CCCCCCCCCCCCCCCCCCNC(=O)c1cc(S(=O)(=O)O)c2ccccc2c1O [Compound 72] | – | 6.49 | – |
| CCCCCCCCCCCCCCCCCCNC(=O)C1CC(=O)N(c2ccc(Oc3ccc(S(=O)(=O)O)cc3)c(S(=O)(=O)O)c2)C1 (centres unmarked) [Compound 104] | – | 6.33 | – |
